Among the data in patent US20220009920A1 (GB005, Inc., priority 2020, published 2022) are IC50, concentration and Kp values, retold here.

Where two headings read alike, the source gives them in different places. A value given as a limit tells only on which side of the number the result lay.

The test system of one series is BTK in RAMOS B cells. Put plainly: Assay to determine BTK activity in RAMOS B cells (anti-IgM, FLIPR Calcium 6). The note with it: Homo sapiens, Ramos, anti-IgM EC80, calcium readout. Type of series: cell-based.
Series [1] is described as follows: Plasma and total brain concentrations at 1 h post single oral administration to female C57BL/6 mice. Type of series: in vivo. The note with it: mouse, 10 mg/kg oral gavage; for Kp at 1 h: brain/plasma, read-out: brain to plasma ratio. The method, then:
The appropriate amount of test article was dissolved 10% dimethylacetamide (DMA)/90% (20% hydroxypropyl-β-cyclodextrin (HP-B-CD) w/v in water to obtain a final concentration of 1 mg/mL for oral dosing. Sonication, vortex, and homogenization was used as needed. Three female C57BL/6 mice aged 7-9 weeks (20-30 grams) were dosed by oral gavage 10 mg/kg solution of the test article.
Concentrations of test compounds in the plasma and brain samples (use plasma and brain homogenate standard curve for all samples appropriately) were analyzed using LC-MS/MS. Compounds having a brain-to-plasma ratio of greater than 0.2 were considered brain penetrant.

The target of another series is T1, BTK (Homo sapiens, UniProt Q06187).
T1 construct: purchased Cama
T1 sequence (Q06187 whole entry): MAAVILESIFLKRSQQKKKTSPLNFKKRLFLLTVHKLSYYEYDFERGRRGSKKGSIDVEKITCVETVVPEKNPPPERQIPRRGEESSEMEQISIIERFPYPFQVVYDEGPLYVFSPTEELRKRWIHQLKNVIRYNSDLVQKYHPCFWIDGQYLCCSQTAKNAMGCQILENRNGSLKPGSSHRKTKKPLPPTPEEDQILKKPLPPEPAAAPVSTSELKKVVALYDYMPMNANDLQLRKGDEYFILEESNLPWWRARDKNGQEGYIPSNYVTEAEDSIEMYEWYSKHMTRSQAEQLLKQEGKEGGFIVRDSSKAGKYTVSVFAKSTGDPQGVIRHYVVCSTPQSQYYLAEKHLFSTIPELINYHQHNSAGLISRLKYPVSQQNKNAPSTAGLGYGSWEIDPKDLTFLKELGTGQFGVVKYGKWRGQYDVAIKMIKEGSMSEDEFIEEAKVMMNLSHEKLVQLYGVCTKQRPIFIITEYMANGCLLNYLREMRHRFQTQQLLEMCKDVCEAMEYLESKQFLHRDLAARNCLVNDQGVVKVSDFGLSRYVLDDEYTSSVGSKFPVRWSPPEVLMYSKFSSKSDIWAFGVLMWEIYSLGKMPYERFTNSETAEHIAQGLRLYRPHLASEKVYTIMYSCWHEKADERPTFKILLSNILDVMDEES
Put plainly: Assay to determine activity against BTK. The note with it: 1 mM ATP, 2 nM BTK, 90 minutes at room temperature. Type of series: biochemical. In outline: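 Recombinant BTK (2 nM) was assayed with 1.5 µM FL-peptide and 1 mM ATP in pH 7.5 HEPES buffer with MgCl2, DTT, BSA and EGTA, for 90 min at room temperature before an EDTA stop. Peptide conversion ratio was read by mobility-shift, and IC50 came from 11-point 3-fold dilution curves.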

Where [2] appears, read: plasma, read-out: Mean [plasma].

With `C=CC(=O)N1CCC[C@@H](c2cnc(C(N)=O)c3[nH]c4c(c23)CCCC4)C1` [Compound 2-4, (S)-4-(1-acryloylpiperidin-3-yl)-6,7,8,9-tetrahydro-5H-pyrido[3,4-b]indole-1-carboxamide], the IC50 with BTK in RAMOS B cells and against BTK was below 10 nM in each case. The concentration at 1 h in series [1] (brain, read-out: Mean [brain]) was determined as 39 ng/g; in series [1] (setting [2]), 163 ng/mL. In addition, the Kp at 1 h in series [1] is 0.24.
On to `C=CC(=O)N1CCc2c(cccc2-c2ccc(C(N)=O)c3[nH]c4c(c23)CC2(CC4)CC2)C1` [Compound 7-2, 5-(2-acryloyl-1,2,3,4-tetrahydroisoquinolin-5-yl)-1,2,4,9-tetrahydrospiro[carbazole-3,1′-cyclopropane]-8-carboxamide], for which the concentration for half-maximal inhibition (IC50) (in general, the point on the concentration scale where inhibition reaches its midpoint) in the series with BTK in RAMOS B cells is at least 100 nM; on BTK it was 10 to 100 nM. Moreover, the concentration at 1 h in series [1] (brain, read-out: Mean [brain]) was 43 ng/g; in series [1] (setting [2]), 109 ng/mL. Moreover, in series [1], the Kp at 1 h amounted to 0.39.
Consider `CC#CC(=O)N[C@H]1CCCN(c2c(F)cc(C(N)=O)c3[nH]c(C)c(C)c23)C1` [Branebrutinib, reference compound], for which the concentration at 1 h in series [1] (brain, read-out: Mean [brain]) is 15 ng/g; in series [1] (setting [2]), 6820 ng/mL. In addition, the Kp at 1 h in series [1] was found to be 0.002.
The matching figures for `C=CC(=O)N1CCC(CNc2ncnc(N)c2-c2ccc(Oc3ccccc3)cc2)CC1` [Evobrutinib, reference compound]: 11 ng/g, 177 ng/mL and 0.06.
For the compound `C=CC(=O)N1CCC=C(c2c(F)cc(C(N)=O)c3[nH]c4c(c23)CCCCC4)C1` [Compound 5-4, 1-(1-acryloyl-1,2,5,6-tetrahydropyridin-3-yl)-2-fluoro-5,6,7,8,9,10-hexahydrocyclohepta[b]indole-4-carboxamide], the IC50 with BTK in RAMOS B cells was 10 to 100 nM; against BTK, below 10 nM. Besides, the concentration at 1 h in series [1] (brain, read-out: Mean [brain]) is 4 ng/g; in series [1] (setting [2]), 18 ng/mL. The Kp at 1 h in series [1] is 0.22.
In the case of `C=CC(=O)N1CCC[C@@H](n2nc(-c3ccc(Oc4ccccc4)cc3)c3c(N)ncnc32)C1` [Ibrutinib, reference compound], the concentration at 1 h in series [1] (brain, read-out: Mean [brain]) is 15 ng/g; in series [1] (setting [2]) it was 306 ng/mL. Also, the Kp at 1 h in series [1] amounted to 0.001.
